Marks after values point to notes of the source that are not given here.
Columns and labels:
[1] = system: Drosophila melanogaster (Oregon); assay: Life span of wild type Oregon-R flies with aMT or 5MT added to the nutrition medium; assay type: in vivo; settings: for Life span (days), Maximum / Life span (days), Mean / Life span (days), Median: aMT (18.3 mM) and 5MT (18.3 mM) in medium; for Increase of maximum life span / Increase of mean survival time: vs control
Protocol: Wild type Oregon-R flies were maintained at 23° C. on a standard Drosophila medium consisting of sugar, yeast, agar and semolina. Two concentrations of aMT (alpha-dl-methyl tryptophan) (0.46 mM or 18.3 mM) or 5MT (5-methyl-dl-tryptophan) (2.4 mM and 18.mM) (Sigma Aldrich Chemical Co, USA) were added to nutrition medium of experimental groups. To examine lifespan, 1-day old adult flies were collected and then regularly transferred to fresh medium every 3-4 days. The number of dead flies was recorded at the time of transfer.
The data were analyzed using two ways ANOVA and Log rank test.

[2] = system: Drosophila melanogaster (Oregon); assay: as above; assay type: in vivo

SMILES	Life span (days), Maximum ([1]; FEMALE flies)	Life span (days), Mean ([1]; FEMALE flies)	Life span (days), Median ([1]; FEMALE flies) [days]	Life span (days), Maximum ([1]; MALE flies) [days]	Life span (days), Mean ([1]; MALE flies)	Life span (days), Median ([1]; MALE flies)	Increase of maximum life span ([1]; female flies, 5MT 34.5 mM, p<0.0001, two way ANOVA) [%]	Female flies surviving longer than 53 days (maximum life span of female control group) ([1]; female flies, high concentrations of 5MT (34.5 mM), 11 out of 58) [%]	Effect on life span of Drosophila ([2]; 5MT 2.3 mM in medium)	Increase of mean survival time ([2]; female flies, 5MT 34.5 mM, vs control, p<0.0001, two way ANOVA) [%]	Longest survival of treated female flies ([2]; female flies, high concentrations of 5MT (34.5 mM))	Effect on life span of Drosophila ([1]; aMT 0.46 mM in medium)	Increase of maximum life span ([1]; female flies, aMT 18.3 mM, p<0.0001) [%]	Female flies surviving longer than 53 days (maximum life span of female control group) ([1]; female flies, high concentration of aMT (18.3 mM), 13 out of 51) [%]	Increase of mean survival time ([1]; females, aMT 18.3 mM, p<0.0001, two way ANOVA) [%]	Increase of maximum life span ([1]; male flies, aMT 18.3 mM, p<0.0001) [%]	Effect on life span of male flies ([1]; male flies, high concentration (18.3 mM))	Male flies surviving longer than 40 days (maximum life span of 72 out of 73 control flies) ([1]; male flies, high concentration of aMT (18.3 mM), 29 out of 40) [%]	Increase of mean survival time ([1]; males, aMT 18.3 mM, p<0.0001, two way ANOVA) [%]
Cc1ccc2[nH]cc(CC(N)C(=O)O)c2c1 (racemic) [5MT, 5-methyl-dl-tryptophan]	65* days	48.5* days	50	40	26.7 days	30 days	23	19	did not affect	21	up to 65 days								
C[C@](N)(Cc1c[nH]c2ccccc12)C(=O)O (racemic) [aMT, alpha-dl-methyl tryptophan]		51.7* days	50		40.2* days	43* days						did not affect	23	25	27	21	did not affect	60	42

Reference: patent US20130101580A1, “COMPOSITIONS AND METHODS FOR PROLONGING LIFESPAN” (priority 2011, published 2013)
